# Data reported in patent publication US5514814A, “Pyrrolinone-based compounds” (Trustees of the University of Pennsylvania, priority 1994, dated 1996).
# Target: T1, HIV-1 protease (Human immunodeficiency virus type 1 group M subtype B, UniProt P12497)
# T1 construct: HIV-1 protease purified generally according to Heimbach; made in house
# Assay: Inhibition of purified HIV-1 protease (IC50)
# Type: biochemical
# Conditions: HIV-1 protease purified generally according to Heimbach, et al.
# Procedure: The extent to which the compounds of the invention for inhibit and prevent the spread of HIV-1 protease was determined generally according to the methods disclosed by Thompson, et al., J. Med. Chem. 1992, 35, 1685. IC50 and CIC95 values were determined using HIV-1 protease purified generally according to Heimbach, et al., Biochem. Biophys. Res. Commun. 1989, 164, 955.
row,Structure (SMILES),IC50
1,CC(C)C[C@@]1(C2=CN[C@@](Cc3ccccc3)(C[C@H](O)[C@H](Cc3ccccc3)NC(=O)OC(C)(C)C)C2=O)NC=C([C@@H](Cc2ccccc2)C(=O)NC(C)(C)C)C1=O [(54)],48 nM
2,COC(=O)[C@H](Cc1ccccc1)C1=CN[C@@](CC(C)C)(C2=CN[C@@](Cc3ccccc3)(C[C@H](O)[C@H](Cc3ccccc3)NC(=O)OC(C)(C)C)C2=O)C1=O [(59)],37 nM
3,CC(C)(C)OC(=O)N[C@@H](Cc1ccccc1)[C@@H](O)C[C@]1(Cc2ccccc2)NC=C([C@H]2c3ccccc3C[C@H]2O)C1=O [(68)],11.9 nM
4,CC(C)CC1(C2=CNC(Cc3ccccc3)(CC(O)C(Cc3ccccc3)NC(=O)OC(C)(C)C)C2=O)NC=C(C(Cc2ccccc2)C(N)=O)C1=O (stereo not shown) [(11)],10 nM
5,COC(=O)[C@H](Cc1ccccc1)C1=CN[C@@](CC(C)C)(C2=CN[C@@](Cc3ccccc3)(C[C@H](O)[C@H](Cc3ccccc3)NC(=O)O[C@H]3CCOC3)C2=O)C1=O [(58)],2 nM
6,O=C(N[C@@H](Cc1ccccc1)[C@@H](O)C[C@]1(Cc2ccccc2)NC=C([C@H]2c3ccccc3C[C@H]2O)C1=O)O[C@H]1CCOC1 [(67)],2 nM
7,CC(C)C[C@@]1(C2=CN[C@@](Cc3ccccc3)(C[C@H](O)[C@H](Cc3ccccc3)NC(=O)O[C@H]3CCOC3)C2=O)NC=C([C@@H](Cc2ccccc2)C(N)=O)C1=O [(49)],1.3 nM
8,CC(C)C[C@@]1(C2=CN[C@@](Cc3ccccc3)(C[C@H](O)[C@H](Cc3ccccc3)NC(=O)O[C@H]3CCOC3)C2=O)NC=C([C@@H](Cc2ccccc2)C(=O)NC(C)(C)C)C1=O [(53)],3.3 nM

# Target: HIV1 (Human immunodeficiency virus type 1 (NEW YORK-5 ISOLATE), UniProt P12497)
# Assay: Effective HIV1 inhibitor at stated concentration
# Type: biochemical
# Conditions: not given
row,found to act as effective HIV1 inhibitor at (concentration),Structure (SMILES)
1,3.5 µM,CC(C)=CCC1(Cc2ccccc2)NC=C(C2(CC(C)C)NC=C(C(CC3CCCCC3)C(O)C(O)CC(C)C)C2=O)C1=O (stereo not shown) [Structure (9a)]

# System: renin
# Assay: Effective renin inhibitor at stated concentration
# Type: biochemical
# Conditions: not given
row,Structure (SMILES),found to act as an effective renin inhibitor at (concentration)
1,"CC(C)=CCC1(Cc2ccccc2)NC=C(C(CC(C)C)C(=O)NC(CC2CCCCC2)C(O)C(O)CC(C)C)C1=O [Structure (10a), 5(S)-prenyl-(5-benzyl)pyrrolin-4-one-3!-2(R)-isobutylacetate-1-amino-1(S)-cyclohexylmethyl-2(R)3 3 (S)-dihydroxy-5-methylhexane!-amide]",700 nM
